Experimental data taken from patent US20220348885A1, “BIOLOGICALLY RELEVANT IN VITRO SCREENING OF HUMAN NEURONS” (The Board of Trustees of the Leland Stanford Junior …, priority 2016, published 2022).
Entries after “also recorded” stand apart in the source; their conditions may differ.

Tests used:
[1] = system: neural co-cultures consisting of primary human glial cells and a mixture of glutamatergic excitatory iN cells and GABAergic inhibitory iN cells; assay: Bicuculline-induced seizure-like network activity on MEA and co-application of antiepileptic drugs (Example 7); assay type: cell-based; conditions: co-application with 1 μM bicuculline, 3 doses
Method: Generation of human neural co-cultures and MEA recording settings and thresholds were as described under Example 6. […] Co-application of AEDs was performed in 3 different doses and each condition was tested in 6 technical replicates.

[2] = system: neural co-cultures consisting of primary glial cells and glutamatergic excitatory iN cells; assay: MEA recording of neuronal network activity, pure excitatory co-culture (Example 3); assay type: cell-based, human; conditions: for decrease of the frequency of total bursts / decrease of the frequency of total spikes (mean firing rate): dosed vs baseline
Method: Induced excitatory neurons were seeded at day 4 after induction by transcriptional activation of the neurogenic transcription factor NGN2, on 12-well MEA plates (Axion BioSystems) coated with matrigel. A total of 600,000 iN cells were plated per well. Primary glial cells were obtained by dissociating brains of mouse pups at postnatal day 3 with hippocampal and cerebellar structures being removed in advance. Dissociated brains were pre-cultured and passaged twice to remove primary neurons. Glial cells were then seeded directly on the plated iN cells at a density of 120,000 cells per well.
Recordings of spontaneous neuronal activity were performed at 1, 2, 3, and 4 weeks after plating for a period of 10 minutes each.
Neural co-cultures were produced as described under Example 1. […] Recordings were performed at week 4 in culture for 10 minutes for each condition including baseline measurements prior to compound application and test measurements following the addition of a single compound. Between baseline and test condition recordings, the plates were store in an incubator (37° C., 5% CO2) to readjust pH of the media. Each compound was applied to a different well in order to prevent secondary effects of previous treatments. First, the effect of the common compound solvent DMSO was tested by adding 0.1% to the neural co-culture medium. As depicted in FIG. 6A i and ii, DMSO alone increased the frequency of total spikes (mean firing rate) and the frequency of total bursts by 0.2 Hz and 0.018 Hz, respectively. Moreover, a minor increase in synchrony could be detected increasing the percentage of bursts within synchronized network activity by approximately 5%.

[3] = system: neural co-cultures consisting of primary glial cells and a mixture of glutamatergic excitatory iN cells and GABAergic inhibitory iN cells; assay: MEA recording of neuronal network activity, mixed excitatory/inhibitory co-culture approx. 70%/30% (Example 4); assay type: cell-based, human; conditions: 50 μM, excitatory/inhibitory approx. 70%/30%
Method: Induced excitatory neurons were seeded at day 4 and induced inhibitory neurons were seeded at day 6 after induction. A total of 200000 excitatory iN cells and 200000 inhibitory iN cells were plated simultaneously per well on 12-well MEA plates (Axion BioSystems) coated with matrigel. Primary glial cells were obtained as described in Example 1, and seeded directly on the plated iN cells at a density of 100000 cells per well.
Neural co-cultures were produced as described under Example 2 resulting in excitatory/inhibitory iN cell ratio of approximately 70%/30%. Recordings of neuronal activity, threshold values, and the procedure of measuring baseline and test conditions were performed as described under Example 3. Here, the effect of PTX was tested by adding a final concentration of 50 μM to the neural co-culture medium.

[4] = system: neural co-cultures with a stronger inhibitory component (excitatory/inhibitory iN cells 50%/50%, glial cells from human primary NSCs); assay: MEA recording of neuronal network activity, mixed excitatory/inhibitory co-culture approx. 50%/50% with human glial cells (Example 4, second experiment); assay type: cell-based; conditions: 50 μM, excitatory/inhibitory approx. 50%/50%, 4 weeks in culture
Method: In a second experiment, the effect of PTX on synchronized neuronal network activity in neural co-cultures with a stronger inhibitory component was assessed. For this purpose, a total of 100,000 excitatory iN cells and 300,000 inhibitory iN cells were plated simultaneously per well on 12-well MEA plates (Axion BioSystems) coated with matrigel. Glial cells were derived from human primary NSCs as described above and seeded directly on the plated iN cells at a density of 100,000 cells per well. Due to the different apoptosis rates of the two iN cells types mentioned earlier, the final ratio of excitatory/inhibitory neurons after 4 weeks in culture was approximately 50%/50%.
The effect of PTX was tested by adding a final concentration of 50 μM to the neural co-culture medium.

Compound: Nc1nnc(-c2cccc(Cl)c2Cl)c(N)n1 [lamotrigine]
- mean firing rate, network burst duration, and synchrony [1]: to baseline level (solvent control), or further reduced; also recorded: dose-dependent decrease

Compound: NC(CCCP(=O)(O)O)C(=O)O (stereo not shown) [AP5]
- reduction of the average duration of bursts ([2]; 50 μM, week 4 in culture): about 30%
- synchronized network activity as measured by network burst percentage ([2]; 50 μM, week 4 in culture): reduced
- decrease of the frequency of total bursts ([2]; 50 μM, week 4 in culture): 0.004 Hz
- decrease of the frequency of total spikes (mean firing rate) ([2]; 50 μM, week 4 in culture): 0.2 Hz

Compound: picrotoxin [PTX]
- increase of synchrony of network bursts [3]: ~60%
- spike and burst frequencies [3]: increase
- change in spike and burst frequencies and synchronized network activity ([2]; 50 μM in 0.1% DMSO, pure excitatory culture without GABAergic cells): largely corresponded to the changes observed upon application of 0.1% DMSO
- synchronized network burst pattern [4]: extended synchronized bursts with shortening inter-burst intervals

Compound: O=C1NC(=O)C(c2ccccc2)(c2ccccc2)N1 [phenytoin]
- mean firing rate, network burst duration, and synchrony [1]: to baseline level (solvent control), or further reduced; also recorded: dose-dependent decrease

Compound: N#Cc1cc2[nH]c(=O)c(=O)[nH]c2cc1[N+](=O)[O-] [CNQX]
- occurrence of synchronized network activity ([2]; 20 μM, week 4 in culture): completely abolished
- decrease of the frequency of total bursts ([2]; 20 μM, week 4 in culture): 0.005 Hz
- decrease of the frequency of total spikes (mean firing rate) ([2]; 20 μM, week 4 in culture): 0.4 Hz
